US10314806B2 (SICHUAN JIUZHANG BIOLOGICAL SCIENCE AND TECHNOLOGY CO., LTD., priority 2014, dated 2019)

Experiments:
Lewis lung cancer = test: Inhibition of mice-transplanted tumor of Lewis lung cancer C57BL/6; type: in vivo; conditions: for Inhibitory rate / Tumor weight: 12 times
Method: Animal C57BL/6 mice, body weight 13˜20 g, half male and half female.
Cell Lines Lewis cells were mice lung cancer cells, and grew adhering to the wall in RPMI-1640 media containing 10% calf serum, 100 U·ml^−1 penicillin, 100 μg·ml^−1 streptomycin, and were cultured in an incubator at 37° C. under 5% CO2, followed by changing the medium and subculturing every two or three days.
Viable cells were counted by trypan blue staining. Cell suspension was subcutaneously inoculated at the left forelimb armpit of mice at 0.2 ml/animal (containing about 1×10^7 cells), and after tumor grew to 1 cm×1 cm×1 cm, mice were used in experiment. Mice tumors were aseptically stripped, and washed with Hank's solution thrice, to remove blood, fat and necrotic tissues. Tumors were cut to broken pieces of 1 mm×1 mm×1 mm, and washed with Hank's solution twice, to which physiological saline was added at a ratio of (1 g:3 ml), and then ground in a glass homogenizer and filtered by 80-100 mesh sieve to make a suspension of single cell. Viable cells were counted by trypan blue staining.
On the second day after inoculation, a dosage of 0.2 ml·10 g^−1 was administrated to each group by peritoneal injection (ip) for successive 12 times, once a day. When the tumor weight in negative control group was more than 1.0 g (tumor volume being about 0.5 cm^3), the experiment was stopped, and mice were sacrificed by cervical vertebrae removal and weighed. Tumors were stripped to calculate inhibitory rate.

human brain glioma = test: Inhibition of mice-transplanted human brain glioma; type: in vivo; conditions: for Inhibitmy rate / Tumor weight: 15 days, mice
Method: Human brain glioma cell lines were obtained from Key Laboratory of Transplant Engineering and Immunology, Ministry of health, West China Hospital, Sichuan University.
(1) Model establishment Mice were divided into groups, 10 mice for each group. The solution of brain glioblastoma cell lines was suitably diluted, and inoculated in cortex of left temporal lobe of mice, respectively.
Administration and intervention 24 h after inoculation, mice in each group were administrated by intraperitoneal injection. […] Each group was administrated for successive 15 days.
Determination of tumor inhibitory rate On the last day, the administration was stopped, and all mice were sacrificed and dissected. Tumor tissues were stripped and weighed. Tumor inhibitory rate %=(The mean tumor weight of control group−The mean tumor weight of drug groups)[The mean tumor weight of control group]×100%.
Statistical method The variance analysis of data was performed using the statistical program software package (SPSS13.0 for Windows), and p<0.05 was considered to be a statistically significant difference.

[1] = system: chemical liver injury (rat alcoholic fatty liver model); test: Protective effect on chemical liver injury (rat alcoholic fatty liver model); type: in vivo, rats; conditions: for GSH / SOD / AST / MDA / ALT: 30 days; for GSH / SOD / MDA: liver homogenate; for AST / ALT: serum
Method: Experimental grouping and dose design: Female SD rats were randomly divided to groups, 10 rats for each group, […], 70 mg·kg^−1, 85 mg·kg^−1, 100 mg·kg^−1, 120 mg·kg^−1, 140 mg·kg^−1, 160 mg·kg^−1, 180 mg·kg^−1, […], together with a negative control group and 50% ethanol model control group. Liver injury model was induced by ethanol (analytical pure).
Determination of ALT, AST, TG in serum of rats; Determination of SOD, MDA, reduced glutathione (GSH) in liver homogenate.
Statistics of experimental data: Statistical analysis of experimental data was performed using software package of SPSS 19.0 for windows.

[2] = compared with the negative control group, obvious in the dosage groups of 10 mg/kg-60 mg/kg
[3] = 1 mg·kg^−1 intraperitoneal injection
[4] = 5 mg·kg^−1 intraperitoneal injection
[5] = 10 mg·kg^−1 intraperitoneal injection
[6] = 30 mg·kg^−1 intraperitoneal injection
[7] = 40 mg·kg^−1 intraperitoneal injection
[8] = 50 mg·kg^−1 intraperitoneal injection
[9] = 60 mg·kg^−1 intraperitoneal injection
[10] = 70 mg·kg^−1 intraperitoneal injection
[11] = 90 mg·kg^−1 intraperitoneal injection
[12] = 100 mg·kg^−1 intraperitoneal injection

O=C(/C=C/c1ccc(O)c(O)c1)O[C@@H]1C[C@](O)(C(=O)O)C[C@@H](O)[C@H]1O [Chlorogenic acid of the present invention]
Inhibitory rate (Lewis lung cancer; 1 mg·kg^−1 ip once a day): 2.6% | Tumor weight (Lewis lung cancer; 1 mg·kg^−1 ip once a day): 1.445 ± 0.772 g | Inhibitory rate (Lewis lung cancer; 5 mg·kg^−1 ip once a day): 14.2% | Tumor weight (Lewis lung cancer; 5 mg·kg^−1 ip once a day): 1.273 ± 0.258 g | Inhibitory rate (Lewis lung cancer; 10 mg·kg^−1 ip once a day): 56.5% | Tumor weight (Lewis lung cancer; 10 mg·kg^−1 ip once a day): 0.646 ± 0.230 g | Inhibitory rate (Lewis lung cancer; 20 mg·kg^−1 ip once a day): 74.6% | Inhibitory rate (Lewis lung cancer; 30 mg·kg^−1 ip once a day): 78.3% | Tumor weight (Lewis lung cancer; 30 mg·kg^−1 ip once a day): 0.322 ± 0.111 g | Inhibitory rate (Lewis lung cancer; 40 mg·kg^−1 ip once a day): 76.4% | Tumor weight (Lewis lung cancer; 40 mg·kg^−1 ip once a day): 0.350 ± 0.078 g | Inhibitory rate (Lewis lung cancer; 50 mg·kg^−1 ip once a day): 65.6% | Tumor weight (Lewis lung cancer; 50 mg·kg^−1 ip once a day): 0.510 ± 0.241 g | Inhibitory rate (Lewis lung cancer; 60 mg·kg^−1 ip once a day): 59.2% | Tumor weight (Lewis lung cancer; 60 mg·kg^−1 ip once a day): 0.605 ± 0.363 g | Inhibitory rate (Lewis lung cancer; 70 mg·kg^−1 ip once a day): 32.3% | Tumor weight (Lewis lung cancer; 70 mg·kg^−1 ip once a day): 1.005 ± 0.657 g | Inhibitory rate (Lewis lung cancer; 80 mg·kg^−1 ip once a day): 24.8% | Inhibitory rate (Lewis lung cancer; 90 mg·kg^−1 ip once a day): 17.6% | Tumor weight (Lewis lung cancer; 90 mg·kg^−1 ip once a day): 1.223 ± 0.314 g | Inhibitory rate (Lewis lung cancer; 100 mg·kg^−1 ip once a day): 11.3% | Tumor weight (Lewis lung cancer; 100 mg·kg^−1 ip once a day): 1.316 ± 0.352 g | inhibitory action on mice-transplanted tumor of Lewis lung cancer C57BL/6 (Lewis lung cancer; [2]): obviously inhibitory action | Inhibitmy rate (human brain glioma; [3]): 13.30% | Tumor weight (human brain glioma; [3]): 1.258 ± 0.254 g | Inhibitmy rate (human brain glioma; [4]): 16.06% | Tumor weight (human brain glioma; [4]): 1.218 ± 0.187 g | Inhibitmy rate (human brain glioma; [5]): 52.45% | Tumor weight (human brain glioma; [5]): 0.690 ± 0.128 g | Inhibitmy rate (human brain glioma; 20 mg·kg^−1 intraperitoneal injection): 70.71% | Inhibitmy rate (human brain glioma; [6]): 68.57% | Tumor weight (human brain glioma; [6]): 0.456 ± 0.128 g | Inhibitmy rate (human brain glioma; [7]): 62.03% | Tumor weight (human brain glioma; [7]): 0.551 ± 0.087 g | Inhibitmy rate (human brain glioma; [8]): 56.65% | Tumor weight (human brain glioma; [8]): 0.629 ± 0.068 g | Inhibitmy rate (human brain glioma; [9]): 51.69% | Tumor weight (human brain glioma; [9]): 0.701 ± 0.256 g | Inhibitmy rate (human brain glioma; [10]): 31.22% | Tumor weight (human brain glioma; [10]): 0.998 ± 0.212 g | Inhibitmy rate (human brain glioma; 80 mg·kg^−1 intraperitoneal injection): 18.06% | Inhibitmy rate (human brain glioma; [11]): 13.23% | Tumor weight (human brain glioma; [11]): 1.259 ± 0.124 g | Inhibitmy rate (human brain glioma; [12]): 8.27% | Tumor weight (human brain glioma; [12]): 1.331 ± 0.156 g | inhibitory action on mice-transplanted tumor of human brain glioma (human brain glioma; [2]): obviously inhibitory action | GSH ([1]; 10 mg·kg^−1 intragastric): 13.02 ± 1.23 mg/g | SOD ([1]; 10 mg·kg^−1 intragastric): 28.12 ± 3.25 nmol/mg | AST ([1]; 10 mg·kg^−1 intragastric): 189.54 ± 4.87 U/L | GSH ([1]; 20 mg·kg^−1 intragastric): 18.98 ± 2.14 mg/g | MDA ([1]; 20 mg·kg^−1 intragastric): 5.15 ± 0.21 U/mg | SOD ([1]; 20 mg·kg^−1 intragastric): 36.45 ± 2.47 nmol/mg | AST ([1]; 20 mg·kg^−1 intragastric): 178.54 ± 6.15 U/L | GSH ([1]; 35 mg·kg^−1 intragastric): 19.21 ± 1.45 mg/g | MDA ([1]; 35 mg·kg^−1 intragastric): 5.14 ± 0.47 U/mg | SOD ([1]; 35 mg·kg^−1 intragastric): 37.27 ± 3.25 nmol/mg | AST ([1]; 35 mg·kg^−1 intragastric): 168.54 ± 4.31 U/L | GSH ([1]; 50 mg·kg^−1 intragastric): 22.14 ± 2.41 mg/g | MDA ([1]; 50 mg·kg^−1 intragastric): 4.12 ± 0.65 U/mg | SOD ([1]; 50 mg·kg^−1 intragastric): 38.24 ± 2.75 nmol/mg | ALT ([1]; 50 mg·kg^−1 intragastric): 40.12 ± 3.15 U/L | AST ([1]; 50 mg·kg^−1 intragastric): 139.21 ± 5.14 U/L | GSH ([1]; 70 mg·kg^−1 intragastric): 22.87 ± 2.47 mg/g | MDA ([1]; 70 mg·kg^−1 intragastric): 4.56 ± 0.78 U/mg | SOD ([1]; 70 mg·kg^−1 intragastric): 38.75 ± 3.21 nmol/mg | ALT ([1]; 70 mg·kg^−1 intragastric): 38.48 ± 2.47 U/L | AST ([1]; 70 mg·kg^−1 intragastric): 127.54 ± 6.54 U/L | GSH ([1]; 85 mg·kg^−1 intragastric): 23.01 ± 1.58 mg/g | MDA ([1]; 85 mg·kg^−1 intragastric): 4.32 ± 0.46 U/mg | SOD ([1]; 85 mg·kg^−1 intragastric): 40.14 ± 6.12 nmol/mg | ALT ([1]; 85 mg·kg^−1 intragastric): 35.47 ± 2.46 U/L | AST ([1]; 85 mg·kg^−1 intragastric): 119.25 ± 6.89 U/L | GSH ([1]; 100 mg·kg^−1 intragastric): 23.48 ± 1.78 mg/g | MDA ([1]; 100 mg·kg^−1 intragastric): 4.08 ± 0.85 U/mg | SOD ([1]; 100 mg·kg^−1 intragastric): 41.56 ± 4.32 nmol/mg | ALT ([1]; 100 mg·kg^−1 intragastric): 33.14 ± 1.89 U/L | AST ([1]; 100 mg·kg^−1 intragastric): 126.89 ± 4.21 U/L | GSH ([1]; 120 mg·kg^−1 intragastric): 23.98 ± 2.14 mg/g | MDA ([1]; 120 mg·kg^−1 intragastric): 3.89 ± 0.42 U/mg | SOD ([1]; 120 mg·kg^−1 intragastric): 42.87 ± 3.15 nmol/mg | ALT ([1]; 120 mg·kg^−1 intragastric): 39.85 ± 2.41 U/L | AST ([1]; 120 mg·kg^−1 intragastric): 138.84 ± 5.15 U/L | GSH ([1]; 140 mg·kg^−1 intragastric): 24.35 ± 1.58 mg/g | MDA ([1]; 140 mg·kg^−1 intragastric): 3.57 ± 0.64 U/mg | SOD ([1]; 140 mg·kg^−1 intragastric): 44.78 ± 2.31 nmol/mg | ALT ([1]; 140 mg·kg^−1 intragastric): 40.08 ± 2.78 U/L | AST ([1]; 140 mg·kg^−1 intragastric): 140.54 ± 6.12 U/L | GSH ([1]; 160 mg·kg^−1 intragastric): 20.01 ± 1.47 mg/g | MDA ([1]; 160 mg·kg^−1 intragastric): 4.05 ± 0.25 U/mg | SOD ([1]; 160 mg·kg^−1 intragastric): 38.56 ± 2.45 nmol/mg | AST ([1]; 160 mg·kg^−1 intragastric): 157.98 ± 5.27 U/L | GSH ([1]; 180 mg·kg^−1 intragastric): 19.87 ± 2.84 mg/g | MDA ([1]; 180 mg·kg^−1 intragastric): 4.98 ± 0.87 U/mg | SOD ([1]; 180 mg·kg^−1 intragastric): 37.25 ± 4.27 nmol/mg | AST ([1]; 180 mg·kg^−1 intragastric): 168.12 ± 4.89 U/L | GSH ([1]; 200 mg·kg^−1 intragastric): 19.01 ± 1.58 mg/g | MDA ([1]; 200 mg·kg^−1 intragastric): 5.45 ± 0.24 U/mg | SOD ([1]; 200 mg·kg^−1 intragastric): 36.25 ± 2.87 nmol/mg | AST ([1]; 200 mg·kg^−1 intragastric): 177.56 ± 4.25 U/L | GSH ([1]; 220 mg·kg^−1 intragastric): 17.24 ± 1.89 mg/g | SOD ([1]; 220 mg·kg^−1 intragastric): 30.12 ± 2.14 nmol/mg | AST ([1]; 220 mg·kg^−1 intragastric): 189.98 ± 5.67 U/L | inhibitory action on chemical liver injury ([1]; dosage of 50 mg/kg-140 mg/kg had the most obvious effect): obviously inhibitory action
